This experiment deals with Diabetic Peripheral Neuropathy in a Mouse Induced by Streptozotocin. Nature of the experiment: Von Frey test (0.16 g filament), diabetic peripheral neuropathy induced by streptozotocin. Type of experiment: in vivo, C57BL/6J mice. The conditions noted are these: time course. On the procedure: On Day 8 of acclimation, the mice in the group receiving streptozotocin and the group receiving streptozotocin+1 mg/kg xylitol were administered with streptozotocin at a dose of 200 mg/kg. A massive dose of streptozotocin destroys pancreatic cells in the mice. As a result, insulin is no longer secreted, and thus, diabetes can be developed in the mice. This day was designated as the first day of the administration (Day 0). Note that streptozotocin was administered only on the first day of administration. […]
Six to seven-week-old male C57BL/6J mice were used for the tests as with Example 7. All the mice were acclimated for seven days after arrival. Then, the mice were grouped into the following four groups: a control group, a group receiving streptozotocin, a group receiving 1 mg/kg xylitol, and a group receiving streptozotocin+1 mg/kg xylitol. Each group consisted of nine mice.
The mice in the group receiving 1 mg/kg xylitol were orally administered with xylitol at a dose of 1 mg/kg daily from Day 0. The mice in the group receiving streptozotocin+1 mg/kg xylitol were orally administered with xylitol at a dose of 1 mg/kg daily from Day 21 of administration.
The mice in the four groups described in (1) of the present example (Example 8) were placed in a cage, and the avoidance response frequency (score) was measured by pressing a filament with a bending force of 0.16 g against the back of the hind paw. […]
On Day 8 of acclimation, the mice in the group receiving streptozotocin and the group receiving streptozotocin+5 mg/kg D-threitol were administered with streptozotocin at a dose of 200 mg/kg. A massive dose of streptozotocin destroys pancreatic cells in the mice. As a result, insulin is no longer secreted, and thus, diabetes can be developed in the mice. This day was designated as the first day of the administration (Day 0). Note that streptozotocin was administered only on the first day of administration.
The mice in the group receiving 5 mg/kg D-threitol and the group receiving streptozotocin+5 mg/kg D-threitol were orally administered with D-threitol at a dose of 5 mg/kg daily from Day 0. […]
The mice in the group receiving 5 mg/kg D-threitol were orally administered with D-threitol at a dose of 5 mg/kg daily from Day 0. […]
The mice in the four groups described in (1) of the present example (Example 10) were placed in a cage, and the avoidance response frequency (score) was measured by pressing a filament with a bending force of 0.16 g against the back of the hind paw. […]
The mice in the four groups described in (1) of the present example (Example 11) were placed in a cage, and the avoidance response frequency (score) was measured by pressing a filament with a bending force of 0.16 g against the back of the hind paw. […]

Where [1] appears, read: streptozotocin 200 mg/kg + 5 mg/kg orally daily from Day 21 (therapy).

SMILES strings stand for the structures.

For the molecule `OC[C@@H](O)[C@H](O)CO` [D-threitol], the avoidance response score entry under setting [1] is reported as “reduced from Day 24 onwards”.
The same measure, in the same setting: the entry for `OC[C@H](O)[C@H](O)[C@H](O)[C@@H](O)CO` [L-talitol] is “reduced from Day 21 onwards”.
With `OC[C@@H](O)[C@H](O)[C@@H](O)CO` [xylitol], the avoidance response score entry (streptozotocin 200 mg/kg + 1 mg/kg orally daily from Day 21 (therapy)) is on record as “reduced from Day 21 onwards”.

The values above are taken from patent US20240099989A1, “AGENT FOR PREVENTING OR IMPROVING PERIPHERAL NEUROPATHY” (KINKI UNIVERSITY, priority 2021, published 2024).
